We go through 12 molecules from ChEMBL document CHEMBL1152291, “Structure-based design, synthesis, evaluation, and crystallographic studies of conformationally constrained Smac mimetics as inhibitors of the X-linked inhibitor of apoptosis protein (XIAP)” (J Med Chem, 2008).

Assay [1] deals with E3 ubiquitin-protein ligase XIAP (Homo sapiens, UniProt P98170).
Description: Binding affinity to N-terminal 6xHis-tagged human cloned XIAP BIR3 domain expressed in Escherichia coli BL21 (DE3) by fluorescence polarization-based competitive binding assay
In a further assay the test system is SK-OV-3. The experiment in a line: Growth inhibition of human SKOV3 cells after 4 days by WST8 assay. Format: functional, cell-based. The conditions noted are these: SK-OV-3, 96 h.
Assay [2] relates to MDA-MB-231. Description: cells. The note with it: Homo sapiens, MDA-MB-231, 96 h.
Description: Growth inhibition of human MDA-MB-231 cells after 4 days by WST-8 assay
For assay [3], the system named is MDA-MB-231. Description: Induction of apoptosis in human MDA-MB-231 cells assessed as early apoptotic cells at 1 uM after 48 hrs using annexin V-propidium iodide staining by flow cytometry. The assay is classed as functional. Background: Flow cytometry measures light scatter and fluorescence of single cells or particles in a stream.
The test system of assay [4] is MDA-MB-231. The experiment in a line: Induction of apoptosis in human MDA-MB-231 cells assessed as late apoptotic cells at 30 nM after 48 hrs using annexin V-propidium iodide staining by flow cytometry. The assay is classed as functional.
Assay [5] relates to MDA-MB-231. The experiment in a line: Induction of apoptosis in human MDA-MB-231 cells assessed as early apoptotic cells at 100 nM after 48 hrs using annexin V-propidium iodide staining by flow cytometry. Format: functional.
Assay [6] deals with MDA-MB-231. Description: Induction of apoptosis in human MDA-MB-231 cells assessed as late apoptotic cells at 100 nM after 48 hrs using annexin V-propidium iodide staining by flow cytometry. The assay is classed as functional.
Assay [7] has as its system MDA-MB-231. The experiment in a line: Induction of apoptosis in human MDA-MB-231 cells assessed as early apoptotic cells at 30 nM after 48 hrs using annexin V-propidium iodide staining by flow cytometry. The assay is classed as functional.
Assay [8] deals with MDA-MB-231. Description: Induction of apoptosis in human MDA-MB-231 cells assessed as late apoptotic cells at 1 uM after 48 hrs using annexin V-propidium iodide staining by flow cytometry. The assay is classed as functional.

E3 ubiquitin-protein ligase XIAP, sequence (P98170 whole entry): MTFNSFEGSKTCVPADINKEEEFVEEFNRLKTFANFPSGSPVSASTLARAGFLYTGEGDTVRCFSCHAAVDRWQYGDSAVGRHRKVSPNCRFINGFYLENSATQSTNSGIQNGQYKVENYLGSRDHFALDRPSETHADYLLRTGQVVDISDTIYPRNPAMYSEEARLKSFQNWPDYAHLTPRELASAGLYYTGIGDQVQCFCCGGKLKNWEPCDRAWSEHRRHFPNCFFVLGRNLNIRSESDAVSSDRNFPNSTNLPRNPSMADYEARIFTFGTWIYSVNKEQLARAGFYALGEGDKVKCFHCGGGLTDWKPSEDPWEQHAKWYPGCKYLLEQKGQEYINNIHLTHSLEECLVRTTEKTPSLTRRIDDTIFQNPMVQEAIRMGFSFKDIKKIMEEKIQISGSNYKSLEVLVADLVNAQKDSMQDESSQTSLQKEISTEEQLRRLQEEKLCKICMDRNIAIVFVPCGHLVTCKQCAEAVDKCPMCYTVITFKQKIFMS

The term Ki denotes the dissociation constant of the complex between target and ligand, obtained from inhibition or displacement. A low value points to tighter binding. As usually defined, the IC50 is the point on the concentration scale where inhibition reaches its midpoint. A high value points to a need for much substance. `CC[C@H](N)C(=O)N[C@H]1CCCC[C@H]2CC[C@@H](C(=O)NC(c3ccccc3)c3ccccc3)N2C1=O`: in [1], the affinity corresponds to a Ki of 39 nM. In addition, the IC50 is over 10000 nM in the assay with SK-OV-3 and 8000 nM in the assay on MDA-MB-231 [2].

Molecule `C[C@H](N)C(=O)N[C@H]1CCCC[C@H]2CC[C@@H](C(=O)NCc3ccccc3)N2C1=O` yielded a Ki in assay [1] of 100 nM.

As for `C[C@H](N)C(=O)N[C@H]1CCC[C@H]2CC[C@@H](C(=O)NC(c3ccccc3)c3ccccc3)N2C1=O`, the affinity in [1] corresponds to a Ki of 60 nM.

Molecule `CC[C@H](N)C(=O)N[C@H]1CCCC[C@H]2CC[C@@H](C(=O)N[C@@H](c3ccccc3)c3ccc4ccccc4c3)N2C1=O` registered a Ki in assay [1] of 47 nM.

Consider `CC[C@H](O)C(=O)N[C@H]1CCC[C@H]2CC[C@@H](C(=O)NC(c3ccccc3)c3ccccc3)N2C1=O`, for which the affinity in assay [1], expressed as Ki, was 29000 nM.

In the case of `C[C@H](O)C(=O)N[C@H]1CCCC[C@H]2CC[C@@H](C(=O)NC(c3ccccc3)c3ccccc3)N2C1=O`, in assay [1], the Ki came out at 13000 nM. Moreover, the half-inhibitory concentration (IC50) in the assay on SK-OV-3 is over 10000 nM; in the assay with MDA-MB-231 [2], 7000 nM.

`C[C@H](N)C(=O)N[C@H]1CC[C@H]2CC[C@@H](C(=O)NCc3ccccc3)N2C1` showed a Ki in assay [1] of […].

Consider `CC[C@H](NC)C(=O)N[C@H]1CCCC[C@H]2CC[C@@H](C(=O)NC(c3ccccc3)c3ccccc3)N2C1=O`, for which the Activity is listed as 29% with MDA-MB-231 [3]; 3% with MDA-MB-231 [4]; 20% in the assay on MDA-MB-231 [5]; 3% in the assay on MDA-MB-231 [6]; 13% in the assay with MDA-MB-231 [7]; 8% in the assay on MDA-MB-231 [8]. Further, the IC50 was found to be 1000 nM with SK-OV-3 and 410 nM in the assay on MDA-MB-231 [2].

For the molecule `CCC[C@H](N)C(=O)N[C@H]1CC[C@H]2CC[C@@H](C(=O)NCc3ccccc3)N2C1`, the Ki in assay [1] is over 100000 nM.

Take `CC[C@@H](C(=O)N[C@H]1CCCC[C@H]2CC[C@@H](C(=O)NC(c3ccccc3)c3ccccc3)N2C1=O)N1CCOCC1`: the Ki in assay [1] stood at 32900 nM.

For `CN[C@@H](C)C(=O)N[C@H]1CCCC[C@H]2CC[C@@H](C(=O)NC(c3ccccc3)c3ccccc3)N2C1=O`, the Activity in the assay on MDA-MB-231 [3] is on record as 39%; in the assay with MDA-MB-231 [4] it was 2%; with MDA-MB-231 [5], 29%; in the assay with MDA-MB-231 [6], 10%; in the assay with MDA-MB-231 [7] it was 13%; in the assay with MDA-MB-231 [8] it was 8%. In the assay with SK-OV-3, this molecule displayed an IC50 of 900 nM.

Molecule `CC[C@H](N)C(=O)N[C@H]1CCCC[C@H]2CC[C@@H](C(=O)N[C@H](c3ccccc3)c3ccc4ccccc4c3)N2C1=O` came in with an inhibition constant (Ki) in assay [1] of 759 nM.
